# Results as given in ChEMBL document CHEMBL5126510, “UCH-L3 structure and function: Insights about a promising drug target” (Eur J Med Chem, 2022).
# Assays:
# [1] = target: T1, Ubiquitin carboxyl-terminal hydrolase isozyme L3 (Homo sapiens) (UniProt P15374); assay: Inhibition of UCHL3 (unknown origin) using Ub-AMC as substrate at 0.1 uM preincubated for 60 mins followed by substrate addition by fluorescence assay relative to control
# T1 sequence (whole entry): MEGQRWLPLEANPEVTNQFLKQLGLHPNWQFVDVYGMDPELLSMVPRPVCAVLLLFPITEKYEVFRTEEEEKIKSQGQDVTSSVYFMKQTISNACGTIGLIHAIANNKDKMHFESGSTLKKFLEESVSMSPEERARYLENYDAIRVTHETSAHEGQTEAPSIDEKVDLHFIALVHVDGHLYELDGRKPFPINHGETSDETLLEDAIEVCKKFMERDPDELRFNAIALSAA
# [2] = target: T2, Ubiquitin carboxyl-terminal hydrolase isozyme L3 (Homo sapiens, UniProt P15374); assay: Inhibition of UCHL3 (unknown origin)
# T2 sequence (P15374 whole entry): T1 sequence (whole entry)
# [3] = target: T2, Ubiquitin carboxyl-terminal hydrolase isozyme L3; assay: Inhibition of UCHL3 (unknown origin) using ubiquitin-AMC as substrate by fluorescence assay
# [4] = target: T3, Ubiquitin carboxyl-terminal hydrolase isozyme L1 (Homo sapiens, UniProt P09936); assay: Inhibition of UCHL1 (unknown origin) using Ub-Rho-morpholine as substrate preincubated for 30 mins followed by substrate addition by fluorescence based assay
# T3 sequence (P09936 whole entry): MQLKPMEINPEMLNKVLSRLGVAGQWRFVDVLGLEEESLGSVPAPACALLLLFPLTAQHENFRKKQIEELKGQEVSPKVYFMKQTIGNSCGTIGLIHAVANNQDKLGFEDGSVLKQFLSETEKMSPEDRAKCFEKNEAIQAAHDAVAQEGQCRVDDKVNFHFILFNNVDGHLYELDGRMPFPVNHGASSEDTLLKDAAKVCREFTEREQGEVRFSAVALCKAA
# [5] = target: T3, Ubiquitin carboxyl-terminal hydrolase isozyme L1; assay: Inhibition of UCHL1 (unknown origin) using Ub-Rho as substrate preincubated for 30 mins followed by substrate addition
# [6] = target: T2, Ubiquitin carboxyl-terminal hydrolase isozyme L3; assay: Inhibition of UCHL3 (unknown origin) assessed as reduction in RAD51 deubiquitination incubated for 4 hrs
# [7] = target: T2, Ubiquitin carboxyl-terminal hydrolase isozyme L3; assay: Inhibition of UCHL3 (unknown origin) incubated for 20 mins by fluorescence assay
# [8] = target: T2, Ubiquitin carboxyl-terminal hydrolase isozyme L3; assay: Inhibition of UCHL3 (unknown origin) using Ub-AMC as substrate preincubated for 30 mins followed by substrate addition by fluorescence assay
# [9] = target: T2, Ubiquitin carboxyl-terminal hydrolase isozyme L3; assay: Inhibition of recombinant human UCHL3 expressed in baculovirus infected Sf9 cells using ubiquitin-AMC as substrate preincubated for 30 mins followed by substrate addition by fluorescence spectrophotometric assay
smiles,measurement,setting,value
O=C1C(Cc2ccc([N+](=O)[O-])cc2)CNCC1Cc1ccc([N+](=O)[O-])cc1 (stereo not given),inhibition,[1],60%
CC(=O)O/N=C1/C(=O)N(Cc2cc(Cl)ccc2Cl)c2ccc(Cl)cc21,IC50,[2],25 µM
O=C1c2ccccc2C(=O)c2oc(-c3ccc(F)cc3)nc21,IC50,[3],2.16 µM
N#CN1CCC(C(=O)Nc2ncc(N3CCOCC3)s2)C1 (stereo not given),IC50,[4],0.23 µM
N#CN1CCCC1C(=O)n1ccc2c(-c3cn[nH]c3C(F)(F)F)cccc21 (stereo not given),IC50,[5],0.67 µM
CCCCCCCCCCCCCCCCCCOP(=O)([O-])OC1CC[N+](C)(C)CC1 [PERIFOSINE],IC50,[6],0.05 µM
COC(=O)c1cc(-c2ccc(OC)c(OC)c2O)c(N)c(-c2ccc3c(n2)C(=O)C(N)=C(OC)C3=O)n1,IC50,[7],5 µM
C#CCCn1cc(-c2cccc3c2ccn3C(=O)C2CCCN2C#N)c(C(F)(F)F)n1 (stereo not given),IC50,[5],6.4 µM
CCCCC[C@H](O)/C=C/[C@H]1C(=O)C=C[C@@H]1C/C=C\CCCC(=O)O,IC50,[8],10 µM
CCCCc1ccc(-c2nnc(C)n2-c2ccc(C(C)C)cc2)cc1,IC50,[9],47 µM
